From patent US6586188B1, “Method for identification of compounds that bind to β-tubulin and stimulate insulin secretion” (Biovitrum AB, priority 1999, dated 2003)

Assays:
[1] = system: isolated rat islets of Langerhans; settings: cited from earlier work
[2] = system: β-cells; test: Staining of microtubules with an antibody against tubulin in pretreated β-cells; type: cell-based, ob/ob mice; settings: 5 μM nocodazole or 25 μM Taxol
Method: (§1) Staining of microtubules with an antibody against tubulin in β-cells pretreated with vehicle, nocodazole or taxol (a). Data are representative of three determinations. Effect of nocodazole (b) and taxol (c) on the dynamics of insulin release from column perifused β-cells. Cells were incubated with 5 μM nocodazole for 30 min or 25 μM taxol for 15 min prior to starting perifusion of the cells. Taxol was present during the whole experiment. The control cells were incubated with their respective vehicle solutions. Protocols were initiated at the times indicated in the figure with either 1 μM glibenclamide or 15 mM glucose. The data represents the mean+SEM of four experiments.
(§2) Cells were incubated with 5 μM nocodazole for 30 min or 25 μM taxol for 15 min prior to starting perifusion of the cells. Taxol was present during the whole experiment. The control cells were incubated with their respective vehicle solutions. Protocols were initiated at the times indicated in FIG. 3 with either 1 μM glibenclamide or 15 mM glucose. The data represent the mean±SEM of four experiments.

[3] = system: β-cells; test: Dynamics of insulin release from column perifused β-cells; type: cell-based, ob/ob mice; settings: for basal level of insulin secretion: 5 μM nocodazole (30 min) or 25 μM Taxol (15 min and throughout); for increase in insulin secretion: 1 μM glibenclamide in the presence of 5 μM nocodazole
Method: as §1
(§3) Ob/ob mice were obtained from a locally bread colony at the animal facility within the Karolinska Institute, Stockholm, Sweden. The ob/ob mice were starved overnight. The animals were decapitated, the pancreas was excised from the abdominal cavity and pancreatic β-cells were isolated after collagenase digestion as previously described (Lemmark, A, (1974) Diabetologica 10, 431-438; Nilsson, T. et al. (1987) Biochem. J. 248, 329-336). The cells were kept overnight in RPMI 1640 medium supplemented with 11 mM glucose, 10% FCS, 100 μg/ml streptomycin and 100 IU/ml penicillin at 37° C. in a humidified atmosphere of 5% CO2 in air.
The basal medium used for isolation and for conducting the experiments was a buffer containing 125 mM NaCl; 5.9 mM KCl; 1.3 mM CaCl2; 1.2 mM MgCl2; and 25 mM HEPES (pH 7.4). BSA was added to the medium at the concentration of 1 mg/ml. The dynamics of insulin release were studied by perifusing β-cell aggregates mixed with Bio-Gel P4 polyacrylamide beads (BioRad, Richmond, Calif.), in a 0.5 ml column at 37° C. (Kanatsuna, T. et al. (1981) Diabetes 30, 231-234). The flow rate was 0.2 ml/min. Two-min fractions were collected and insulin content was analyzed by radioimmunoassay.
as §2

[4] = system: pancreatic β-cells; test: Binding of [125I]glibenclamide to intact β-cells and subcellular fractions, UV cross-linking, SDS-PAGE, autoradiography; set-up: species or system ob/ob mice
From the text: as §3
Binding of [^125I]glibenclamide (Amersham, UK) was performed in intact β-cells and in subcellular fraction derived therefrom. Isolated pancreatic islets from ob/ob mice (250-300) were homogenized in 300 μl buffer containing (in mM): HEPES 20, MgCl2 1, EGTA 1, EDTA 1, PMSF 1, protease inhibitors (leupeptin, aprotinin, pepstatin, antipain) 0.5 μg/ml in Eppendorf tubes using a motor pestle homogenizer. The homogenized material was centrifuged (800×g for 10 min) and the resultant pellet was resuspended again in 200 μl of homogenization buffer and centrifuged as above. […] This material was further analyzed by SDS-PAGE separation and autoradiography (FIG. 1b). […]

[5] = system: β-tubulin; test: Confocal microscopy co-localization of BODIPY FL glibenclamide and anti β-tubulin antibody in β-cells; type: cell-based, ob/ob mice; settings: primary cultures of β-cells, BODIPY FL glibenclamide staining
Method: Further analysis of sulfonylureas binding to β-tubulin was performed using confocal microscopy in primary cultures of β-cells obtained from ob/ob mice. Isolated β-cells in culture were incubated in the presence or absence of different agonists for 3 min at 23° C. The incubation time was terminated by fixation of the cells with 4% formaldehyde in PBS for 10 min at room temperature. After rinsing twice with PBS, cells were incubated in acetone at −20° C. for 5 min and then quenched with PBS containing 1% BSA for 30 min. BODIPY® FL glibenclamide was purchased from Molecular Probes, Inc., Catalog Number B-7439; http://www.probes.com). The green-fluorescent BODIPY® FL fluorophore has excitation/emission maxima ˜503/512 nm. Staining with BODIPY® FL glibenclamide, primary anti β-tubulin antibody (Amersham, UK) and secondary Texas Red®-conjugated antibody (Molecular Probes Inc.) was performed at room temperature for 1 h. After rinsing with PBS the coverslips were mounted (SlowFade light, Molecular Probes, Eugene, Oreg.) and examined using a confocal laser scanning microscope (Leica TCS NT, Leica Lasertechnik GmbH, Heidelberg, Germany). Excitation wavelengths 488 nm and 568 nm were used. The confocal microscope was equipped with an Ar/Kr laser, a double dicroic mirror for rhodamine/fluorescein and a 63× lens (Leica PL APO 63×/1.32×0.6 oil). […]

[6] = system: Tubulin from bovine brain; test: Tubulin polymerization in vitro (optical density at 340 nm); type: biochemical; settings: 0.17 mM glibenclamide, 2.9 mg/ml tubulin, versus DMSO control
Method: Glibenclamide accelerates microtubule growth. (a): Experimental data showing the increase in optical density at 340 nm, resulting from tubulin polymerization in vitro, as a function of time. Microtubule growth was induced by increasing the temperature from 15° C. (at t=0) to 35° C. The concentration of bovine brain tubulin was 2.9 mg/ml and the buffer solution contain 80 mM Pipes, 1 mM MgCl2, 1 mM EGTA, 1 mM GTP, 2.1% DMSO and 10% glycerol at pH 6.9. The black symbols indicate the presence of 0.17 mM glibenclamide whereas the gray symbols represent the controls in its absence. The polymerization was followed simultaneously for one pair at the time, with each pair being a glibenclamide sample and a control, to ensure comparisons are made on identical protein samples. The data presented is representative of four experiments. (b): The rate of tubulin polymerization as measured by the change in OD with time (dOD/dt) as a function of time. The experimental conditions were the same as in (a). Black lines indicate the presence of glibenclamide and gray lines its absence. […]
Tubulin from bovine brain was purchased from Cytoskeleton Inc. in aliquots of 1 mg lyophilized protein. […] The experiment was then started by altering the multicell holder set temperature to 35° C. and the absorbance at 340 nm was measured as a function of time. […]

Row | SMILES | effect on glucose-stimulated insulin secretion [1] | changes in microtubule organization [2] | basal level of insulin secretion [3] | effect on increase in insulin secretion elicited by 1 μM glibenclamide ([3]; 25 μM Taxol, 3 mM and 15 mM glucose) | proteins associated with binding, cytosolic fraction [4] | co-localization with β-tubulin [5] | increase in insulin secretion ([3]; 3 mM glucose) [fold] | increase in insulin secretion ([3]; 15 mM glucose) | rate of change in absorbance (rate of tubulin polymerization) ([6]; 15° C. to 35° C.) | extent of tubulin polymerization [6]
1 | CC(=O)O[C@H]1C(=O)[C@@]2(C)[C@H]([C@H](OC(=O)c3ccccc3)[C@]3(O)C[C@H](OC(=O)[C@H](O)[C@@H](NC(=O)c4ccccc4)c4ccccc4)C(C)=C1C3(C)C)[C@]1(OC(C)=O)CO[C@@H]1C[C@@H]2O [Taxol] | inhibit | nor did they induce visible changes | did not affect | prevented the increase | – | – | – | – | – | –
2 | COc1ccc(Cl)cc1C(=O)NCCc1ccc(S(=O)(=O)NC(=O)NC2CCCCC2)cc1 [glibenclamide, 5-Chloro-N-[2-[4-[[[(cyclohexylamino)carbonyl]amino]sulfonyl]phenyl]ethyl]-2-methoxybenzamide] | – | – | – | – | associated with two proteins having a molecular mass of approximately 47 and 65 kDa | indicated an interaction between glibenclamide and β-tubulin | 5 | one-fold increase | faster | not a strong influence
3 | COC(=O)Nc1nc2ccc(C(=O)c3cccs3)cc2[nH]1 [nocodazole] | inhibit | nor did they induce visible changes | did not affect | – | – | – | – | – | – | –
